The compounds below were run against T1, human Npt2a (Homo sapiens, UniProt Q06495) (assay: Npt2a activity cell based assay, membrane potential dye, CHO T-REx hNpt2a cells). Conditions: doxycycline-induced, depolarization by sodium phosphate influx, average or median values if tested more than once.
T1 construct: expressed in transfected cells
T1 sequence (Q06495 1-639): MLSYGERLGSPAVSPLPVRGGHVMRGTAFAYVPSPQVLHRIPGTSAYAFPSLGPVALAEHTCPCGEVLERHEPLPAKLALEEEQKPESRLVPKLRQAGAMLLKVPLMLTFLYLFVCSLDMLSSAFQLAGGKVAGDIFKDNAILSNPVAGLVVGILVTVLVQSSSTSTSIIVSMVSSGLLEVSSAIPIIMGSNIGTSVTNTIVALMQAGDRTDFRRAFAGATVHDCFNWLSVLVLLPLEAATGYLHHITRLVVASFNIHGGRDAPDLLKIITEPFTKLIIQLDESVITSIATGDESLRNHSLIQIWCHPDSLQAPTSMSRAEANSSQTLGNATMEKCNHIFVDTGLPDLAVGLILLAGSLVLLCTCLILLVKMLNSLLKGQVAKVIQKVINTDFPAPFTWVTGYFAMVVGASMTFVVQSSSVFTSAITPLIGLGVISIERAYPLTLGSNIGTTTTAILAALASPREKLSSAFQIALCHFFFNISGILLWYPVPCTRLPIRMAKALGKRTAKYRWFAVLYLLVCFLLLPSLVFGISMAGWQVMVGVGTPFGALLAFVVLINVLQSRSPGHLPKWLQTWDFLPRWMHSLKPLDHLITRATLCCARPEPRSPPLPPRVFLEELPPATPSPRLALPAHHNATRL
How it was run: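 Cells were doxycycline-induced CHO T-REx hNpt2a, dye-loaded and pretreated 5 min at RT with 1 nM–50 μM compound in Na-free pH 7.4 buffer. IC50 was fit to the post/pre-trigger fluorescence ratio.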
`CCc1c(Nc2cc(-n3nc(C)c(C(=O)N4CC(F)(F)C4)c3C)ncn2)nn(C)c1-c1ccc(F)cc1` [Example 124, (3,3-difluoroazetidin-1-yl) [1-(6-{[4-ethyl-5-(4-fluorophenyl)-1-methyl-1H-pyrazol-3-yl]amino}pyrimidin-4-yl)-3,5-dimethyl-1H-pyrazol-4-yl]methanone] gave an IC50 of 155 nM.
`COc1c(-c2ccc(C#N)cc2)nn(C)c1Nc1cc(-n2nc(C)c(OC)c2C)ncn1` [Example 462, 4-(4-methoxy-5-{[6-(4-methoxy-3,5-dimethyl-1H-pyrazol-1-yl)pyrimidin-4-yl]amino}-1-methyl-1H-pyrazol-3-yl)benzonitrile] gave an IC50 of 25 nM.
`CCc1c(Nc2cc(-n3ncc4c3CN(C(=O)OC(C)(C)C)C4)ncn2)n[nH]c1-c1ccc(F)cc1` [Example 37, tert-butyl 1-(6-{[4-ethyl-5-(4-fluorophenyl)-1H-pyrazol-3-yl]amino}pyrimidin-4-yl)-4,6-dihydropyrrolo[3,4-c]pyrazole-5(1H)-carboxylate] gave an IC50 of 1700 nM.
`COc1c(Nc2cc(-n3nc(C)c(CC(C)(C)O)c3C)ncn2)nn(C)c1-c1ccc(C#N)cc1` [Example 531, 4-[3-({6-[4-(2-hydroxy-2-methylpropyl)-3,5-dimethyl-1H-pyrazol-1-yl]pyrimidin-4-yl}amino)-4-methoxy-1-methyl-1H-pyrazol-5-yl]benzonitrile] was tested, and the IC50 was 1500 nM.
`COc1c(Nc2cc(-n3nc(C)cc3C)ncn2)nn(C)c1-c1ccc(F)cc1` [Example 253, 6-(3,5-dimethyl-1H-pyrazol-1-yl)-N-[5-(4-fluorophenyl)-4-methoxy-1-methyl-1H-pyrazol-3-yl]pyrimidin-4-amine] showed an IC50 of 67 nM.
In the case of `COCCn1nc(-c2ccc(C(F)F)cc2)c(C)c1Nc1cc(-n2nc(C)c(OC)c2C)ncn1` [Example 539, N-{3-[4-(difluoromethyl)phenyl]-1-(2-methoxyethyl)-4-methyl-1H-pyrazol-5-yl}-6-(4-methoxy-3,5-dimethyl-1H-pyrazol-1-yl)pyrimidin-4-amine], the IC50 is reported as 20 nM.
In the case of `COc1c(Nc2cc(-n3nc(C)c4ccncc43)ncn2)n[nH]c1-c1ccc(C#N)cc1` [Example 214, 4-(4-methoxy-3-{[6-(3-methyl-1H-pyrazolo[3,4-c]pyridin-1-yl)pyrimidin-4-yl]amino}-1H-pyrazol-5-yl)benzonitrile], the IC50 is reported as 86 nM.
Work on `CCc1c(Nc2cc(-n3nc(C)cc3C)ncn2)nn(CCOCc2ccccc2)c1-c1ccc(F)cc1` [Example 31, N-{1-[2-(benzyloxy)ethyl]-4-ethyl-5-(4-fluorophenyl)-1H-pyrazol-3-yl}-6-(3,5-dimethyl-1H-pyrazol-1-yl)pyrimidin-4-amine] yielded an IC50 of 670 nM.
`Cc1nn(-c2cc(Nc3c(Cl)c(-c4ccc(F)cc4)nn3CC3CC3)ncn2)c2cnccc12` [Example 218, N-[4-chloro-1-(cyclopropylmethyl)-3-(4-fluorophenyl)-1H-pyrazol-5-yl]-6-(3-methyl-1H-pyrazolo[3,4-c]pyridin-1-yl)pyrimidin-4-amine] was tested, and the IC50 was 32 nM.
`Cc1c(-c2ccc(F)cc2)nn(CC2CC2)c1Nc1cc(-n2cc3c(n2)CN(C(=O)OC(C)(C)C)C3)ncn1` [Example 433, tert-butyl 2-(6-{[1-(cyclopropylmethyl)-3-(4-fluorophenyl)-4-methyl-1H-pyrazol-5-yl]amino}pyrimidin-4-yl)-2,6-dihydropyrrolo[3,4-c]pyrazole-5(4H)-carboxylate] gave an IC50 of 1500 nM.
With `Cc1cc(C(F)F)n(-c2cc(Nc3nn(C)c(-c4ccc(F)cc4)c3OC(F)F)ncn2)n1` [Example 412, N-[4-(difluoromethoxy)-5-(4-fluorophenyl)-1-methyl-1H-pyrazol-3-yl]-6-[5-(difluoromethyl)-3-methyl-1H-pyrazol-1-yl]pyrimidin-4-amine] the IC50 was 12 nM.
For `CCOC(=O)c1c(C)nn(-c2cc(Nc3nn(CC4CC4)c(-c4ccc(F)cc4)c3C)ncn2)c1C` [Example 151, ethyl 1-(6-{[1-(cyclopropylmethyl)-5-(4-fluorophenyl)-4-methyl-1H-pyrazol-3-yl]amino}pyrimidin-4-yl)-3,5-dimethyl-1H-pyrazole-4-carboxylate], the IC50 was 390 nM.
For `Cc1cc(C(F)F)n(-c2cc(Nc3c(C)c(-c4ccc(C(F)(F)F)nc4)nn3CC3CC3)ncn2)n1` [Example 532, N-{1-(cyclopropylmethyl)-4-methyl-3-[6-(trifluoromethyl)pyridin-3-yl]-1H-pyrazol-5-yl}-6-[5-(difluoromethyl)-3-methyl-1H-pyrazol-1-yl]pyrimidin-4-amine], the IC50 was 2800 nM.
In the case of `Cc1nn(-c2cc(Nc3c(C)c(-c4ccc(F)cc4)nn3CC3CC3)ncn2)c2c1C(O)(C(F)(F)F)CC2` (racemic) [Example 386, (±)-1-(6-{[1-(cyclopropylmethyl)-3-(4-fluorophenyl)-4-methyl-1H-pyrazol-5-yl]amino}pyrimidin-4-yl)-3-methyl-4-(trifluoromethyl)-1,4,5,6-tetrahydrocyclopenta[c]pyrazol-4-ol], the IC50 is reported as 12 nM.
For `CCc1c(Nc2cc(-n3nc(C)c(C(=O)N4CCCCC4)c3C)ncn2)nn(C)c1-c1ccc(F)cc1` [Example 105, [1-(6-{[4-ethyl-5-(4-fluorophenyl)-1-methyl-1H-pyrazol-3-yl]amino}pyrimidin-4-yl)-3,5-dimethyl-1H-pyrazol-4-yl](piperidin-1-yl)methanone], the IC50 was 235 nM.
Compound `Cc1nn(-c2cc(Nc3c(C)c(-c4ccc(C(F)(F)F)cc4)nn3CC3CC3)ncn2)c(C)c1Cl` [Example 311, 6-(4-chloro-3,5-dimethyl-1H-pyrazol-1-yl)-N-{1-(cyclopropylmethyl)-4-methyl-3-[4-(trifluoromethyl)phenyl]-1H-pyrazol-5-yl}pyrimidin-4-amine] has an IC50 of 340 nM.
In the case of `CC(=O)Cc1c(C)nn(-c2cc(Nc3c(C)c(-c4ccc(F)cc4)nn3CC3CC3)ncn2)c1C` [Example 490, 1-[1-(6-{[1-(cyclopropylmethyl)-3-(4-fluorophenyl)-4-methyl-1H-pyrazol-5-yl]amino}pyrimidin-4-yl)-3,5-dimethyl-1H-pyrazol-4-yl]propan-2-one], the IC50 is reported as 6 nM.
With `CCc1c(Nc2cc(-n3nc(C)c4ncccc43)ncn2)nn(C)c1-c1ccc(F)cc1` [Example 223, N-[4-ethyl-5-(4-fluorophenyl)-1-methyl-1H-pyrazol-3-yl]-6-(3-methyl-1H-pyrazolo[4,3-b]pyridin-1-yl)pyrimidin-4-amine] the IC50 was 36 nM.
In the case of `CCc1c(-c2ccc(F)cc2)n[nH]c1Nc1cc(-n2nc(C)cc2C)ncn1` [Example 13, 6-(3,5-dimethyl-1H-pyrazol-1-yl)-N-[4-ethyl-3-(4-fluorophenyl)-1H-pyrazol-5-yl]pyrimidin-4-amine], the IC50 is reported as 61.9 nM.
`COc1ccc(-c2nn(C)c(Nc3cc(-n4nc(C)c(C(F)(F)F)c4C)ncn3)c2C)cn1` [Example 494, 6-[3,5-dimethyl-4-(trifluoromethyl)-1H-pyrazol-1-yl]-N-[3-(6-methoxypyridin-3-yl)-1,4-dimethyl-1H-pyrazol-5-yl]pyrimidin-4-amine] was tested, and the IC50 was 190 nM.
For `Cc1cc(C)n(-c2cc(Nc3nn(C)c(-c4ccc(F)cc4)c3CN3CC(C(F)(F)F)C3)ncn2)n1` [Example 275, 6-(3,5-dimethyl-1H-pyrazol-1-yl)-N-[5-(4-fluorophenyl)-1-methyl-4-{[3-(trifluoromethyl)azetidin-1-yl]methyl}-1H-pyrazol-3-yl]pyrimidin-4-amine], the IC50 was 1050 nM.

From patent US11208400B2, “Substituted 6-(1H-pyrazol-1-yl)pyrimidin-4-amine derivatives and uses thereof” (Bayer Aktiengesellschaft, priority 2016, dated 2021)
